# Values quoted from earlier work, collected in patent US20070098643A1, “Oligomers of gadolinium chelates, their applicationascontrast products in magnetic resonance imaging and their synthesis intermediates” (priority 2002, published 2007).
# Assays:
# [1] = test system: benign and malignant breast tumors; details: in this model; Daldrup-Link et al. 2000
# [2] = in vivo
substance,measurement,setting,value
Gadomer-17,differentiation of benign from malignant tumors in MRI,[1],does not allow such a differentiation
same,C5/C0 ratio,[2],21%
same,distribution volume,[2],130 mL/kg
same,plasma half-life,[2],37 min
same,total plasma clearance,[2],8.1 mL/min/kg
